Assay results: article PMC12181424, “A genetically tractable branch of environmental Pedobacter from the phylum Bacteroidota represents a hotspot for natural product discovery” (Scientific Reports, 2025)
Non-standard residues stand in square brackets, D forms with d. Residues, ends and D or L forms follow the SMILES beside them. *: point of attachment. Isovaleryl = CC(C)CC(=O)*; ΔVal = CC(C)=C(N)C(=O)O; X1 = CC[C@H](C)C(=O)*

Columns and labels:
[1] = tested on: P. cryoconitis DSM 14825^T; experiment: Antibiotic sensitivity screen of wild-type strain (choice of selection marker); format: cell-based, Pedobacter cryoconitis; conditions: P. cryoconitis DSM 14825^T wild type
Description: (§1) We built a random transposon insertion plasmid (pCRYO1 (Fig. S2)) based on a HIMAR transposon pSAMbt system, initially designed for Bacteroides thetaiotaomicron in which we introduced the constitutive P. cryoconitis promoters of gyrB and rpl13 and used erythromycin as a resistance marker[41] (Fig. 3A). We obtained erythromycin-resistant clones by conjugation and electroporation and confirmed the presence of the ermR gene by colony PCR (Material and Methods).
(§2) To genetically modify P. cryoconitis, we first screened different antibiotics (streptomycin, ampicillin, kanamycin, apramycin, chloramphenicol, and erythromycin) against P. cryoconitis PAMC 27485 and P. cryoconitis DSM 14825^T. Only erythromycin (100 µg/ml) and chloramphenicol (150 µg/ml) were effective and selected as markers. A transposon plasmid, pCRYO-01 was modified based on pSAM bt[30] by assembling PCR-amplified regions upstream of the P. cryoconitis PAMC 27485 gyrB (AMQ00279.1, 228 bps) and rpl13 genes (AMQ00867.1, 178 bps) with the erythromycin resistance (ermR) and the transposase genes via Gibson Assembly. PCR reactions were carried out using Q5 polymerase (New England Biolabs) as specified by the manufacturer. Conjugation experiments were performed using E. coli WM3064/pCRYO-01 and P. cryoconitis (overnight cultures) on LB, POM, and R2A (with 5 mM final MgCl2) agar with different donor-recipient ratios (1:1, 2:1, 3:1) for 48 h. Cells were scraped off, serially diluted, and plated on R2A agar plates with erythromycin (50, 100, 150, and 200 µg/ml). Erythromycin-resistant colonies were tested for ermR presence and plasmid backbone absence by colony PCR. A 3:1 donor-recipient ratio at 23 °C yielded the highest number of transformants. Dilution of the inoculum at 10^− 1 or 10^− 2 was optimal for single colonies, with more transformants observed in P. cryoconitis PAMC 27485 compared to P. cryoconitis DSM 14825^T. For electroporation, P. cryoconitis PAMC 27485 cells (OD 0.4) were made competent by washing 3-times with ice-cold 10% glycerol (centrifugation at 5000 rpm). Aliquots of 50 µl were mixed with pCRYO1. After electroporation (12.5 kV/cm), cells were cultured without antibiotics for 5 h, then plated on R2A with 150 µg/ml erythromycin. Colonies appeared within 3 days, with 100% carrying the transposon cassette, though efficiency was lower than with conjugation. Electroporation of competent cells stored at -80 °C was also possible.

[2] = tested on: P. cryoconitis PAMC 27485; experiment: as above; format: cell-based, Pedobacter cryoconitis; conditions: P. cryoconitis PAMC 27485 wild type
Description: as §1, §2

[3] = tested on: Staphylococcus aureus ATCC33592; format: cell-based
[4] = tested on: bacterial and fungal indicator strains; experiment: Screening against bacterial and fungal indicator strains (whole panel, as summarised in the text); format: cell-based; conditions: summary in the text of Table S11; no growth inhibitory effects
rhodesain = conditions: tested concentration 20 µM; procedure of Brinkmann et al.
Description: The cryopeptins are linear lipopeptides containing the non-proteinogenic amino acid dehydrovaline. This amino acid is a rare building block, and its occurrence is yet limited to linear peptides. For instance, dehydrovaline is found in cytotoxic yakuamides from the sponge Ceratopsion sp[42]. and in the myxobacterial antibiotic myxovalargin[43]. […] In addition, 4 and 5 underwent screening against the human cysteine proteases cathepsin B and L, and rhodesain, the cysteine protease of Trypanosoma brucei rhodesiense according to the procedure described in[45].
The minimum inhibitory concentrations (MIC) of pure compounds were determined as described by Orban et al.3 Pure compounds were screened against Escherichia coli ATCC35218, Mycobacterium smegmatis ATCC607, Staphylococcus aureus ATCC33592, Candida albicans FH2173 and Septoria tritici MUCL45407. Protease testings (human cysteine proteases cathepsin B and L, trypanosomal cysteine protease rhodesain) were performed at concentrations of 20 μM as described in Brinkmann et al.4.

Candida albicans FH2173 = format: cell-based
[5] = tested on: Mycobacterium smegmatis ATCC607; format: cell-based
[6] = tested on: human cysteine protease cathepsin L; experiment: Cysteine protease inhibition testing; format: biochemical; conditions: tested concentration 20 µM; procedure of Brinkmann et al.
[7] = tested on: human cysteine protease cathepsin B; experiment: Cysteine protease inhibition testing; format: biochemical; conditions: tested concentration 20 µM; procedure of Brinkmann et al.
[8] = tested on: Septoria tritici MUCL45407; format: cell-based
[9] = tested on: Escherichia coli ATCC35218; format: cell-based

SMILES	concentration that inhibited the growth of the wild-type strain [1]	concentration that inhibited the growth of the wild-type strain [2]	MIC Staphylococcus aureus ATCC 33592 [3]	Minimal inhibitory concentration against bacterial and fungal indicator strains [4]	protease inhibitory activity, rhodesain (rhodesain)	MIC Candida albicans FH2173 (Candida albicans FH2173)	MIC Myobacterium smegmatis ATCC607 [5]	protease inhibitory activity, cathepsin L [6]	protease inhibitory activity, cathepsin B [7]	MIC Septoria tritici MUCL45407 [8]	MIC Escherichia coli ATCC 35218 [9]
O=C(N[C@H](CO)[C@H](O)c1ccc([N+](=O)[O-])cc1)C(Cl)Cl [chloramphenicol]	150 µg/mL	150 µg/mL	–	–	–	–	–	–	–	–	–
CC[C@H](C)C(=O)N[C@@H](Cc1ccccc1)C(=O)NC(C(=O)N[C@@H](CCCNC(=N)N)C(=O)NC(C(=O)N[C@@H](CC(C)C)C(=O)O)=C(C)C)=C(C)C [cryopeptin D (4)] (X1-F[ΔVal]R[ΔVal]L-OH)	–	–	>128 µg/mL	> 128 µg/mL	no protease inhibitory activity was observed	>128 µg/mL	>128 µg/mL	no protease inhibitory activity was observed	no protease inhibitory activity was observed	>128 µg/mL	>128 µg/mL
CC(C)=C(NC(=O)[C@H](Cc1ccccc1)NC(=O)CC(C)C)C(=O)N[C@@H](CCCNC(=N)N)C(=O)NC(C(=O)N[C@@H](CC(C)C)C(=O)O)=C(C)C [cryopeptin E (5)] (Isovaleryl-F[ΔVal]R[ΔVal]L-OH; N-terminus and C-terminus assumed)	–	–	>128 µg/mL	–	no protease inhibitory activity was observed	>128 µg/mL	>128 µg/mL	no protease inhibitory activity was observed	no protease inhibitory activity was observed	>128 µg/mL	>128 µg/mL
CC[C@H]1OC(=O)[C@H](C)[C@@H](O[C@H]2C[C@@](C)(OC)[C@@H](O)[C@H](C)O2)[C@H](C)[C@@H](O[C@@H]2O[C@H](C)C[C@H](N(C)C)[C@H]2O)[C@](C)(O)C[C@@H](C)C(=O)[C@H](C)[C@@H](O)[C@]1(C)O [erythromycin]	100 µg/mL	100 µg/mL	–	–	–	–	–	–	–	–	–
